Measurements reported in ChEMBL document CHEMBL5058645, “Data for DCP probe JNJ-6204” (2022).

Key:
[1] = biological target: Cyclin-dependent kinase-like 4 (Homo sapiens) (UniProt Q5MAI5); experiment: CDKL4(h) Kinase panel; conditions: Compound concentration 1.0 uM, tested as the 2H-labelled form
[2] = biological target: MAP kinase-activated protein kinase 2 (Homo sapiens) (UniProt P49137); experiment: MAPKAP-K2(h) Kinase panel; conditions: Compound concentration 1.0 uM, tested as the 2H-labelled form
[3] = biological target: Cyclin-dependent kinase-like 1 (Homo sapiens) (UniProt Q00532); experiment: CDKL1(h) Kinase panel; conditions: Compound concentration 1.0 uM, tested as the 2H-labelled form
[4] = biological target: Cyclin-dependent kinase 4 (Homo sapiens) (UniProt P11802); experiment: CDK4/cyclinD3(h) Kinase panel; conditions: Compound concentration 1.0 uM, tested as the 2H-labelled form
[5] = biological target: Serine/threonine-protein kinase LATS1 (Homo sapiens) (UniProt O95835); experiment: LATS1(h) Kinase panel; conditions: Compound concentration 1.0 uM, tested as the 2H-labelled form
[6] = biological target: Serine/threonine-protein kinase TAO2 (Homo sapiens) (UniProt Q9UL54); experiment: TAO2(h) Kinase panel; conditions: Compound concentration 1.0 uM, tested as the 2H-labelled form
[7] = biological target: Dual specificity protein kinase CLK1 (Homo sapiens) (UniProt P49759); experiment: CLK1(h) Kinase panel; conditions: Compound concentration 1.0 uM, tested as the 2H-labelled form
[8] = biological target: Tyrosine-protein kinase JAK2 (Homo sapiens) (UniProt O60674); experiment: JAK2(h) Kinase panel; conditions: Compound concentration 1.0 uM, tested as the 2H-labelled form
[9] = biological target: Aurora kinase B (Homo sapiens) (UniProt Q96GD4); experiment: Aurora-B(h) Kinase panel; conditions: Compound concentration 1.0 uM, tested as the 2H-labelled form
[10] = biological target: Cell division cycle 7-related protein kinase (Homo sapiens) (UniProt O00311); experiment: Cdc7/cyclinB1(h) Kinase panel; conditions: Compound concentration 1.0 uM, tested as the 2H-labelled form
[11] = biological target: Tyrosine-protein kinase Tec (Homo sapiens) (UniProt P42680); experiment: Tec(h) activated Kinase panel; conditions: Compound concentration 1.0 uM, tested as the 2H-labelled form
[12] = biological target: NT-3 growth factor receptor (Homo sapiens) (UniProt Q16288); experiment: TrkC(h) Kinase panel; conditions: Compound concentration 1.0 uM, tested as the 2H-labelled form
[13] = biological target: Serine/threonine-protein kinase 26 (Homo sapiens) (UniProt Q9P289); experiment: MST4(h) Kinase panel; conditions: Compound concentration 1.0 uM, tested as the 2H-labelled form
[14] = biological target: Homeodomain-interacting protein kinase 4 (Homo sapiens) (UniProt Q8NE63); experiment: HIPK4(h) Kinase panel; conditions: Compound concentration 1.0 uM, tested as the 2H-labelled form
[15] = biological target: PAS domain-containing serine/threonine-protein kinase (Homo sapiens) (UniProt Q96RG2); experiment: PASK(h) Kinase panel; conditions: Compound concentration 1.0 uM, tested as the 2H-labelled form
[16] = biological target: 5-hydroxytryptamine receptor 1D (Homo sapiens) (UniProt P28221); conditions: Compound concentration 10.0 uM, tested as the 2H-labelled form
[17] = biological target: Transcription initiation factor TFIID subunit 1-like (Homo sapiens) (UniProt Q8IZX4); experiment: TAF1L(h) Kinase panel; conditions: Compound concentration 1.0 uM, tested as the 2H-labelled form
[18] = biological target: Sigma intracellular receptor 2 (Homo sapiens) (UniProt Q5BJF2); conditions: Compound concentration 10.0 uM, tested as the 2H-labelled form
[19] = biological target: Serine/threonine-protein kinase tousled-like 2 (Homo sapiens) (UniProt Q86UE8); experiment: TLK2(h) Kinase panel; conditions: Compound concentration 1.0 uM, tested as the 2H-labelled form
[20] = biological target: Tyrosine-protein kinase FRK (Homo sapiens) (UniProt P42685); experiment: PTK5(h) Kinase panel; conditions: Compound concentration 1.0 uM, tested as the 2H-labelled form
[21] = biological target: Focal adhesion kinase 1 (Homo sapiens) (UniProt Q05397); experiment: FAK(h) Kinase panel; conditions: Compound concentration 1.0 uM, tested as the 2H-labelled form
[22] = biological target: Eukaryotic translation initiation factor 2-alpha kinase 3 (Homo sapiens) (UniProt Q9NZJ5); experiment: PEK(h) Kinase panel; conditions: Compound concentration 1.0 uM, tested as the 2H-labelled form
[23] = biological target: Proto-oncogene tyrosine-protein kinase ROS (Homo sapiens) (UniProt P08922); experiment: Ros(h) Kinase panel; conditions: Compound concentration 1.0 uM, tested as the 2H-labelled form
[24] = biological target: Serine/threonine-protein kinase 38-like (Homo sapiens, UniProt Q9Y2H1); experiment: NDR2(h) Kinase panel; conditions: Compound concentration 1.0 uM, tested as the 2H-labelled form
[25] = biological target: Serine/threonine-protein kinase ULK3 (Homo sapiens) (UniProt Q6PHR2); experiment: ULK3(h) Kinase panel; conditions: Compound concentration 1.0 uM, tested as the 2H-labelled form
[26] = biological target: Serine/threonine-protein kinase ICK (Homo sapiens) (UniProt Q9UPZ9); experiment: ICK(h) Kinase panel; conditions: Compound concentration 1.0 uM, tested as the 2H-labelled form
[27] = biological target: Mitogen-activated protein kinase kinase kinase 21 (Homo sapiens) (UniProt Q5TCX8); experiment: MLK4(h) Kinase panel; conditions: Compound concentration 1.0 uM, tested as the 2H-labelled form
[28] = biological target: Calcium/calmodulin-dependent protein kinase kinase 1 (Homo sapiens) (UniProt Q8N5S9); experiment: CaMKK1(h) Kinase panel; conditions: Compound concentration 1.0 uM, tested as the 2H-labelled form
[29] = biological target: Ribosomal protein S6 kinase alpha-6 (Homo sapiens) (UniProt Q9UK32); experiment: Rsk4(h) Kinase panel; conditions: Compound concentration 1.0 uM, tested as the 2H-labelled form
[30] = biological target: Mitogen-activated protein kinase 14 (Homo sapiens, UniProt Q16539); experiment: SAPK2a(h) Kinase panel; conditions: Compound concentration 1.0 uM, tested as the 2H-labelled form
[31] = biological target: Receptor-interacting serine/threonine-protein kinase 1 (Homo sapiens) (UniProt Q13546); experiment: RIPK1(h) Kinase panel; conditions: Compound concentration 1.0 uM, tested as the 2H-labelled form
[32] = biological target: Serine/threonine-protein kinase MRCK beta (Homo sapiens) (UniProt Q9Y5S2); experiment: MRCKbeta(h) Kinase panel; conditions: Compound concentration 1.0 uM, tested as the 2H-labelled form
[33] = biological target: Fibroblast growth factor receptor 2 (Homo sapiens) (UniProt P21802); experiment: FGFR2(h) Kinase panel; conditions: Compound concentration 1.0 uM, tested as the 2H-labelled form
[34] = biological target: 5-hydroxytryptamine receptor 2C (Homo sapiens) (UniProt P28335); conditions: Compound concentration 10.0 uM, tested as the 2H-labelled form
[35] = biological target: Tyrosine-protein kinase ZAP-70 (Homo sapiens) (UniProt P43403); experiment: ZAP-70(h) Kinase panel; conditions: Compound concentration 1.0 uM, tested as the 2H-labelled form
[36] = biological target: Serine/threonine-protein kinase WNK3 (Homo sapiens) (UniProt Q9BYP7); experiment: WNK3(h) Kinase panel; conditions: Compound concentration 1.0 uM, tested as the 2H-labelled form
[37] = biological target: cGMP-dependent protein kinase 1 (Homo sapiens) (UniProt Q13976); experiment: PKG1alpha (h) Kinase panel; conditions: Compound concentration 1.0 uM, tested as the 2H-labelled form
[38] = biological target: Serine/threonine-protein kinase Sgk2 (Homo sapiens) (UniProt Q9HBY8); experiment: SGK2(h) Kinase panel; conditions: Compound concentration 1.0 uM, tested as the 2H-labelled form
[39] = biological target: Serine/threonine-protein kinase PLK1 (Homo sapiens) (UniProt P53350); experiment: Plk1(h) Kinase panel; conditions: Compound concentration 1.0 uM, tested as the 2H-labelled form
[40] = biological target: Platelet-derived growth factor receptor beta (Homo sapiens) (UniProt P09619); experiment: PDGFRbeta(h) Kinase panel; conditions: Compound concentration 1.0 uM, tested as the 2H-labelled form
[41] = biological target: Dual specificity tyrosine-phosphorylation-regulated kinase 1A (Homo sapiens) (UniProt Q13627); experiment: DYRK1A(h) Kinase panel; conditions: Compound concentration 1.0 uM, tested as the 2H-labelled form
[42] = biological target: Dual specificity protein kinase CLK4 (Homo sapiens) (UniProt Q9HAZ1); experiment: CLK4(h) Kinase panel; conditions: Compound concentration 1.0 uM, tested as the 2H-labelled form
[43] = biological target: Serine/threonine-protein kinase PAK 5 (Homo sapiens) (UniProt Q9P286); experiment: PAK5(h) Kinase panel; conditions: Compound concentration 1.0 uM, tested as the 2H-labelled form
Homo sapiens = organism: Homo sapiens; experiment: MAPK2(h) Kinase panel; conditions: Compound concentration 1.0 uM, tested as the 2H-labelled form
[44] = biological target: Muscarinic acetylcholine receptor M5 (Homo sapiens) (UniProt P08912); conditions: Compound concentration 10.0 uM, tested as the 2H-labelled form
[45] = biological target: Tyrosine-protein kinase Fyn (Homo sapiens) (UniProt P06241); experiment: Fyn(h) Kinase panel; conditions: Compound concentration 1.0 uM, tested as the 2H-labelled form
[46] = biological target: Casein kinase I isoform alpha (Homo sapiens, UniProt P48729); experiment: CK1alpha(h) Kinase panel; conditions: Compound concentration 1.0 uM, tested as the 2H-labelled form
[47] = biological target: Serine/threonine-protein kinase Nek2 (Homo sapiens) (UniProt P51955); experiment: NEK2(h) Kinase panel; conditions: Compound concentration 1.0 uM, tested as the 2H-labelled form
[48] = biological target: Serine/threonine-protein kinase PLK3 (Homo sapiens) (UniProt Q9H4B4); experiment: Plk3(h) Kinase panel; conditions: Compound concentration 1.0 uM, tested as the 2H-labelled form
[49] = biological target: Serine/threonine-protein kinase D1 (Homo sapiens) (UniProt Q15139); experiment: PKCmu (h) Kinase panel; conditions: Compound concentration 1.0 uM, tested as the 2H-labelled form
[50] = biological target: Serine/threonine-protein kinase LATS2 (Homo sapiens) (UniProt Q9NRM7); experiment: LATS2(h) Kinase panel; conditions: Compound concentration 1.0 uM, tested as the 2H-labelled form
[51] = biological target: Serine/threonine-protein kinase 32C (Homo sapiens) (UniProt Q86UX6); experiment: STK32C(h) Kinase panel; conditions: Compound concentration 1.0 uM, tested as the 2H-labelled form

Measured: inhibition

Serine/threonine-protein kinase 32C (Homo sapiens), sequence (Q86UX6 whole entry): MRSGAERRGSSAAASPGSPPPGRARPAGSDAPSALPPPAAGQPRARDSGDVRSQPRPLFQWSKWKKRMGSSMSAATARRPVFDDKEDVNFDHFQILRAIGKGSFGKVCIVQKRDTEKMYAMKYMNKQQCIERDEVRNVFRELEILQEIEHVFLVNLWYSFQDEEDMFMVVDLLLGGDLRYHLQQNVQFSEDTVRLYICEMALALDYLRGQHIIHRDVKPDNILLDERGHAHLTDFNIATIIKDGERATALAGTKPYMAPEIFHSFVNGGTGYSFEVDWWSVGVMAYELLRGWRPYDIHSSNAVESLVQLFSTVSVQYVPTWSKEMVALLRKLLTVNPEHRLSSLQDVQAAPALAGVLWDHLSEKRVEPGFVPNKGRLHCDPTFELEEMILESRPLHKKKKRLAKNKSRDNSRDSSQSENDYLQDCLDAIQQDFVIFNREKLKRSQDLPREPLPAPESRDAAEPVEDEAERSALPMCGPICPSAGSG
Cyclin-dependent kinase-like 4 (Homo sapiens), sequence (Q5MAI5 whole entry): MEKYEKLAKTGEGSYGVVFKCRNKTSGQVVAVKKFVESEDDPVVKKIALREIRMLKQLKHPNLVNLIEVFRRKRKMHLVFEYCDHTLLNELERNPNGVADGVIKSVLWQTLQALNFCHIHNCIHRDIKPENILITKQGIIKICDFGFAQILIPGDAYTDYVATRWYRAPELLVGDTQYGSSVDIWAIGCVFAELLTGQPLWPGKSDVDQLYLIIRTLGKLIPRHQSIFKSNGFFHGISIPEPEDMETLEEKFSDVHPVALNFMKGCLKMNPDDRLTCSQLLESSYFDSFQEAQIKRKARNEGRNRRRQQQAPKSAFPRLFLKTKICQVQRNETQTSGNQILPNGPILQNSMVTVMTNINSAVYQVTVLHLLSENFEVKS
Mitogen-activated protein kinase kinase kinase 21 (Homo sapiens), sequence (Q5TCX8 whole entry): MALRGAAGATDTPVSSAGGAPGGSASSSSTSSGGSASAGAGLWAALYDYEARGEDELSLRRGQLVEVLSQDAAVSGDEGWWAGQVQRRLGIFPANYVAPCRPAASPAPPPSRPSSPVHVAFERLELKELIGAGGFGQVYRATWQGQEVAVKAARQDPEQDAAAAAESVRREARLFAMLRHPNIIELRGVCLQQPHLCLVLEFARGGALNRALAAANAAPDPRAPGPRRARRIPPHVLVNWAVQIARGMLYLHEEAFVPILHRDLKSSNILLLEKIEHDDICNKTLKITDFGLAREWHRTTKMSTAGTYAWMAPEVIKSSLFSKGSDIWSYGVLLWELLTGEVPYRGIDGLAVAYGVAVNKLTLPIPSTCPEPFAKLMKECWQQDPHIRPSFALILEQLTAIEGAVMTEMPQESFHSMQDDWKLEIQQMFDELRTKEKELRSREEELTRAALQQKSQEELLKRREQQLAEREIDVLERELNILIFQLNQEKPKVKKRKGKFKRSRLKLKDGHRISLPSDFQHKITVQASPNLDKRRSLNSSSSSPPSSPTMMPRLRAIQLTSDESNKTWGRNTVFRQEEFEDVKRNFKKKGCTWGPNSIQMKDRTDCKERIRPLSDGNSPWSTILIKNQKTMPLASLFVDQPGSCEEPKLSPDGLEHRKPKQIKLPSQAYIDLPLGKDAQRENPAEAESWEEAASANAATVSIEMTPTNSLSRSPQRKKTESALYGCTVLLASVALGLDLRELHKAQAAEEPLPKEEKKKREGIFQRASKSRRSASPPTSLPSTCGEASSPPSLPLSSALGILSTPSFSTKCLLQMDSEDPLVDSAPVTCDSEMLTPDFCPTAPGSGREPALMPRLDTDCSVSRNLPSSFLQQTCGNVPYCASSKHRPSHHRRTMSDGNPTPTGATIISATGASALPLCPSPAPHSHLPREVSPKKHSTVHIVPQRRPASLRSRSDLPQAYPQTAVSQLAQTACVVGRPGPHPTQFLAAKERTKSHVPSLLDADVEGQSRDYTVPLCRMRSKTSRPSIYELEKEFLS
Proto-oncogene tyrosine-protein kinase ROS (Homo sapiens), sequence (P08922 whole entry): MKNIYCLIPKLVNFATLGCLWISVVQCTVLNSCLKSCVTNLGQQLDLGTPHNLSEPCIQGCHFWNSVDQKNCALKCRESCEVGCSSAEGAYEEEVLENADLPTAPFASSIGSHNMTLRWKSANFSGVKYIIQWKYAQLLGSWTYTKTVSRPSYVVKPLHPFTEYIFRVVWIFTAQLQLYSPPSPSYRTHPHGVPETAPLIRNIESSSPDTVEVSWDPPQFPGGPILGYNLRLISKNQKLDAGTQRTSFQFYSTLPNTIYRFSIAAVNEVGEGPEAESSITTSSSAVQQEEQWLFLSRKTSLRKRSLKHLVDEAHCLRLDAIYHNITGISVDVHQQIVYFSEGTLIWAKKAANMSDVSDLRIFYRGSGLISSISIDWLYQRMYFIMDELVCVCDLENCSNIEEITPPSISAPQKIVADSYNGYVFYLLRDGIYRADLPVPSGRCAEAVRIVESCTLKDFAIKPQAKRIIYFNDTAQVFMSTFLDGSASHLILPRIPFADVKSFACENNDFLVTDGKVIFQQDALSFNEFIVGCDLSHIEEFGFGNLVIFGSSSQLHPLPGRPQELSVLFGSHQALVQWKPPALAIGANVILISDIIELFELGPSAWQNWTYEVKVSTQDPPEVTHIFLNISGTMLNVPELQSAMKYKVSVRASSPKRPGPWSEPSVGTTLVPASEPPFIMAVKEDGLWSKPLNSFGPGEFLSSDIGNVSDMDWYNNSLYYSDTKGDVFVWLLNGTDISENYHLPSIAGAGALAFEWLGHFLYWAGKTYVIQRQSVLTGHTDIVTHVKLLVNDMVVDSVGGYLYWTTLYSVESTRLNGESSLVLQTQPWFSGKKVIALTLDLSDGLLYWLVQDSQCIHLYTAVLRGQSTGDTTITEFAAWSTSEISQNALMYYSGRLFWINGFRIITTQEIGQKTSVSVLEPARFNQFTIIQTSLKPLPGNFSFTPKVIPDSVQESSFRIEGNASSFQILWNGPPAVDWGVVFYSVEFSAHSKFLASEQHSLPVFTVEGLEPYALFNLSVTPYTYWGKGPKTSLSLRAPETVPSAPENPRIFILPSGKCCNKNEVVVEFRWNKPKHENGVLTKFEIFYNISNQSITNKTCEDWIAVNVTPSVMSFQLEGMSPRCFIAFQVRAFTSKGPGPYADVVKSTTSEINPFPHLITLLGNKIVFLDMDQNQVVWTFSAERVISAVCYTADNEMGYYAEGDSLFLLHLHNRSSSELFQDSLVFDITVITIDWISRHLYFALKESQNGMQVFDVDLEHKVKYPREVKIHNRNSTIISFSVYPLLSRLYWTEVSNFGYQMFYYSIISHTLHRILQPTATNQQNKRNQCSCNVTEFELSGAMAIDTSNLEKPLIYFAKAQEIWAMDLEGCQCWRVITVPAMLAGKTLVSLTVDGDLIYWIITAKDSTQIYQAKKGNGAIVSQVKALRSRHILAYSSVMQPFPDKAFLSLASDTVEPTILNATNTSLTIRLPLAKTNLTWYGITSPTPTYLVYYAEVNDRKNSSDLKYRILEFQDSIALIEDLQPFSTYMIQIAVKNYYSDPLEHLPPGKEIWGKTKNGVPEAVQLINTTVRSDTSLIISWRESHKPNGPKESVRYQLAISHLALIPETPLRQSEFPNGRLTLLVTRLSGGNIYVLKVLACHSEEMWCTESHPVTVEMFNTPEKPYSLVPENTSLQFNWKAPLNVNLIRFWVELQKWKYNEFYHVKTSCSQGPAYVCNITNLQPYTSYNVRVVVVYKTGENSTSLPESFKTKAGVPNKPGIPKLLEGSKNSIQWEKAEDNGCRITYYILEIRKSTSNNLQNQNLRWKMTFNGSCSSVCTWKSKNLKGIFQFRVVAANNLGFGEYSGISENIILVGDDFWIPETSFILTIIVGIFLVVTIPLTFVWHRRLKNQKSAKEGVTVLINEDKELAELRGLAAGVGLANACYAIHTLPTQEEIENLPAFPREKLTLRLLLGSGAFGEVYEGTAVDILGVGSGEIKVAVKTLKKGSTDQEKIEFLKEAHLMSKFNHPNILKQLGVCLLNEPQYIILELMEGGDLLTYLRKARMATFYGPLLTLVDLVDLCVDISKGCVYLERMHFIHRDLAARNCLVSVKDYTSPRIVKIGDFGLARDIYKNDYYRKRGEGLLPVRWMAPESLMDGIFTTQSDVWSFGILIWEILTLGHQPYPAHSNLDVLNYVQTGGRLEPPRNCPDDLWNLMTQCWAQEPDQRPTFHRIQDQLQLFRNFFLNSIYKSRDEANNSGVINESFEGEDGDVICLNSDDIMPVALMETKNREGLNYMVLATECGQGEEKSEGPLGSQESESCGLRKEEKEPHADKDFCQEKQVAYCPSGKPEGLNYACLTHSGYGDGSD
Serine/threonine-protein kinase ICK (Homo sapiens), sequence (Q9UPZ9 whole entry): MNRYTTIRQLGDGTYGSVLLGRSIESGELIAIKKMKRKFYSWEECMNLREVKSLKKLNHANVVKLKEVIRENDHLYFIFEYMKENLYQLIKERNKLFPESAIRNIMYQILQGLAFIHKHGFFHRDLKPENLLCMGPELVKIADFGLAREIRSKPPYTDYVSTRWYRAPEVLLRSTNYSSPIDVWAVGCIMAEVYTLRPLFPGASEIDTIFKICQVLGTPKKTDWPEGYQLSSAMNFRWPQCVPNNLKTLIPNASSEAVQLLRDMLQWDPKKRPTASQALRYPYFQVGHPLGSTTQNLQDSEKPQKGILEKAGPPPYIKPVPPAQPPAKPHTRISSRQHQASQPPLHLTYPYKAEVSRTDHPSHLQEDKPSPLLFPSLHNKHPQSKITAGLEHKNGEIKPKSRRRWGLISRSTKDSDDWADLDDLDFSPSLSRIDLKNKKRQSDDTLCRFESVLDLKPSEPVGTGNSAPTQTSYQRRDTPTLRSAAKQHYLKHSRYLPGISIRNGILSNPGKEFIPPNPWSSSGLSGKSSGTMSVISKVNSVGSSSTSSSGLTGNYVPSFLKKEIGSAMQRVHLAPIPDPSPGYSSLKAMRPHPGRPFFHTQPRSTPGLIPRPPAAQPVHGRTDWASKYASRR
Sigma intracellular receptor 2 (Homo sapiens), sequence (Q5BJF2 whole entry): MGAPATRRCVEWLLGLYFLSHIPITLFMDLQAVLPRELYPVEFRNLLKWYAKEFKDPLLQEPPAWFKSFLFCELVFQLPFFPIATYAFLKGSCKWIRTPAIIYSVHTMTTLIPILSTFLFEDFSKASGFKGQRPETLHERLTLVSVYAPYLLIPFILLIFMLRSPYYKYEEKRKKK

CC1(C)Cn2nc(-c3ccc(F)cn3)c(-c3ccnc4[nH]ncc34)c2CO1
inactive: [1] 9% | [2] -1% | [3] 11% | [4] 13% | [5] 20% | [6] 18% | [7] 6% | [8] 1% | [9] -10% | [10] 10% | [11] 29% | [12] 23% | [13] 6% | [14] 8% | [15] 24% | [16] 33.4% | [17] 3% | [18] -3% | [19] 12% | [20] 11% | [21] 1% | [22] 11% | [23] -2% | [24] 30% | [25] 12% | [26] 10% | [27] 20% | [28] 2% | [29] 23% | [30] 12% | [31] 5% | [32] 2% | [33] 11% | [34] -1.69% | [35] 12% | [36] -2% | [37] -9% | [38] 9% | [39] 15% | [40] -9% | [41] 0% | [42] 15% | [43] 2% | Homo sapiens 6% | [44] -5.3% | [45] 20% | [46] 73% | [47] 6% | [48] -7% | [49] 13% | [50] 12% | [51] 4%
